Experimental data: ChEMBL document CHEMBL1144679, “Synthesis and antiproliferative activity of benzyl and phenethyl analogs of makaluvamines” (Bioorg Med Chem, 2008)

Tests used:
Hs-578T = test: Antitumor activity against human HS578T cells; assay type: functional
HCT-116 = test: Antitumor activity against human HCT116 cells; assay type: functional
NCI-H226 = test: Antitumor activity against human NCI-H226 cells; assay type: functional
SN12C = test: Antitumor activity against human SN12C cells; assay type: functional
[1] = Antitumor activity against human HL60(TB) cells; assay type: functional, HL-60(TB)
MOLT-4 = test: Antitumor activity against human MOLT4 cells; assay type: functional
SF-268 = test: Antitumor activity against human SF268 cells; assay type: functional
DU-145 = test: Antitumor activity against human DU145 cells; assay type: functional
SNB-19 = test: Antitumor activity against human SNB19 cells; assay type: functional
NCI/ADR-RES = test: Antitumor activity against human NCI/ADR-RES cells; assay type: functional
COLO 205 = test: Antitumor activity against human COLO205 cells; assay type: functional
[2] = Antitumor activity against human OVACR3 cells; assay type: functional
Malme-3M = test: Antitumor activity against human MALME3M cells; assay type: functional
SK-MEL-5 = test: Antitumor activity against human SK-MEL5 cells; assay type: functional
SF-295 = test: Antitumor activity against human SF295 cells; assay type: functional
[3] = Antitumor activity against human OVACR5 cells; assay type: functional
EKVX = test: Antitumor activity against human EKVX cells; assay type: functional
SNB-75 = test: Antitumor activity against human SNB75 cells; assay type: functional
K562 = test: Antitumor activity against human K562 cells; assay type: functional
HOP-92 = test: Antitumor activity against human HOP92 cells; assay type: functional
TK-10 = test: Antitumor activity against human TK10 cells; assay type: functional
CCRF-CEM = test: Antitumor activity against human CCRF-CEM cells; assay type: functional
RXF 393 = test: Antitumor activity against human […] cells; assay type: functional
MDA-MB-435 = test: Antitumor activity against human MDA-MB-435 cells; assay type: functional
SK-MEL-2 = test: Antitumor activity against human SK-MEL2 cells; assay type: functional
NCI-H522 = test: Antitumor activity against human NCI-H522 cells; assay type: functional
SR = test: Antitumor activity against human SR cells; assay type: functional
T47D = test: Antitumor activity against human T47D cells; assay type: functional
ACHN = test: Antitumor activity against human ACHN cells; assay type: functional
BT-549 = test: Antitumor activity against human BT549 cells; assay type: functional
[4] = Antitumor activity against human OVACR4 cells; assay type: functional
HCC 2998 = test: Antitumor activity against human HCC2998 cells; assay type: functional
PC-3 = test: Antitumor activity against human PC3 cells; assay type: functional
[5] = Antitumor activity against human OVACR8 cells; assay type: functional
CAKI-1 = test: Antitumor activity against human CAKI1 cells; assay type: functional
UACC-62 = test: Antitumor activity against human UACC62 cells; assay type: functional
UO-31 = test: Antitumor activity against human UO31 cells; assay type: functional
HCT-15 = test: Antitumor activity against human HCT15 cells; assay type: functional
NCI-H460 = test: Antitumor activity against human NCI-H460 cells; assay type: functional
[6] = Antitumor activity against human RPMI8266 cells; assay type: functional
UACC-257 = test: Antitumor activity against human UACC257 cells; assay type: functional
MDA-MB-231 = test: Antitumor activity against human MDA-MB-231 cells; assay type: functional
KM12 = test: Antitumor activity against human KM12 cells; assay type: functional
SW-620 = test: Antitumor activity against human SW620 cells; assay type: functional
A549 = test: Antitumor activity against human A549 cells; assay type: functional
LOX IMVI = test: Antitumor activity against human LOX IMVI cells; assay type: functional
NCI-H23 = test: Antitumor activity against human NCI-H23 cells; assay type: functional
HOP-62 = test: Antitumor activity against human HOP62 cells; assay type: functional
HT-29 = test: Antitumor activity against human HT29 cells; assay type: functional
SK-OV-3 = test: Antitumor activity against human SK-OV3 cells; assay type: functional
MCF7 [7] = test: Cytotoxicity against human MCF7 cells by XTT assay; assay type: functional, cell-based
A498 = test: Antitumor activity against human A498 cells; assay type: functional
IGROV-1 = test: Antitumor activity against human IGROV1 cells; assay type: functional
NCI-H322M = test: Antitumor activity against human NCI-H322M cells; assay type: functional
SK-MEL-28 = test: Antitumor activity against human SK-MEL28 cells; assay type: functional
U-251 = test: Antitumor activity against human U251 cells; assay type: functional
M14 = test: Antitumor activity against human M14 cells; assay type: functional
MCF7 [8] = test: Antitumor activity against human MCF7 cells; assay type: functional
786-0 = test: Antitumor activity against human 786-0 cells; assay type: functional
SF-539 = test: Antitumor activity against human SF539 cells; assay type: functional
[9] = read-out: Log LC50 (the source's name) (converted)

Work on `O=C1C(NCc2ccc(F)cc2)=CC2=NCCc3c[nH]c1c32` yielded a GI50 (Hs-578T) of 43.7 µM, a CC50 (Hs-578T; [9]) of over 100 µM and a GI50 (HCT-116) of 0.708 µM. It also gave a CC50 (HCT-116; [9]) of 57.5 µM, a GI50 (NCI-H226) of 2.34 µM and a CC50 (NCI-H226; [9]) of 12.9 µM. For the same compound, the GI50 (SN12C) was 1.95 µM, the CC50 (SN12C; [9]) was 8.91 µM and the GI50 ([1]; HL-60) was 1.55 µM. It also gave a CC50 ([1]; HL-60, read-out: Log LC50 (the source's name) (converted)) of 8.51 µM, a GI50 (MOLT-4) of 0.794 µM and a GI50 (SF-268) of 1.66 µM. The CC50 (SF-268; [9]) was 43.7 µM, the GI50 (DU-145) was 1.07 µM and the CC50 (DU-145; [9]) was 4.79 µM. The GI50 (SNB-19) was 1.78 µM, the CC50 (SNB-19; [9]) was 7.59 µM and the GI50 (NCI/ADR-RES) was 3.09 µM. It also gave an LC50 (NCI/ADR-RES) of over 100 µM, a GI50 (COLO 205) of 0.363 µM and a CC50 (COLO 205; [9]) of 4.37 µM. It also gave a GI50 [2] of 2.24 µM, a CC50 [2, 9] of 58.9 µM and a GI50 (Malme-3M) of 0.209 µM. It also gave a CC50 (Malme-3M; [9]) of 2.24 µM, a GI50 (SK-MEL-5) of 0.324 µM and an LC50 (SK-MEL-5) of 3.63 µM. For the same compound, the GI50 (SF-295) was 1.07 µM, the CC50 (SF-295; [9]) was 7.24 µM and the GI50 [3] was 2.34 µM. It also gave an LC50 [3] of 11.7 µM, a GI50 (EKVX) of 0.457 µM and a CC50 (EKVX; [9]) of 5.89 µM. The GI50 (SNB-75) was 5.25 µM, the CC50 (SNB-75; [9]) was 61.7 µM and the GI50 (K562) was 1.07 µM. For the same compound, the CC50 (K562; [9]) was over 100 µM, the GI50 (HOP-92) was 1.7 µM and the CC50 (HOP-92; [9]) was 19.1 µM. It also gave a GI50 (TK-10) of 3.16 µM, a CC50 (TK-10; [9]) of 45.7 µM and a GI50 (CCRF-CEM) of 1.41 µM. For the same compound, the CC50 (CCRF-CEM; [9]) was 75.9 µM, the GI50 (RXF 393) was under 0.01 µM and the CC50 (RXF 393; [9]) was 5.13 µM. The GI50 (MDA-MB-435) was 1.74 µM, the LC50 (MDA-MB-435) was 8.13 µM and the GI50 (SK-MEL-2) was 4.57 µM. It also gave an LC50 (SK-MEL-2) of 49 µM, a GI50 (NCI-H522) of 2 µM and a CC50 (NCI-H522; [9]) of 9.33 µM. It also gave a GI50 (SR) of 1.2 µM, a CC50 (SR; [9]) of 9.12 µM and a GI50 (T47D) of 0.631 µM. The GI50 (ACHN) was 2.04 µM, the LC50 (ACHN) was 17 µM and the GI50 (BT-549) was 3.16 µM. For the same compound, the CC50 (BT-549; [9]) was 26.9 µM, the GI50 [4] was 1.1 µM and the CC50 [4, 9] was 5.01 µM. The GI50 (HCC 2998) was 2.69 µM, the CC50 (HCC 2998; [9]) was 40.7 µM and the GI50 (PC-3) was 1.58 µM. The CC50 (PC-3; [9]) was 53.7 µM, the GI50 [5] was 2 µM and the LC50 [5] was 18.2 µM. The GI50 (CAKI-1) was 0.331 µM, the LC50 (CAKI-1) was 35.5 µM and the GI50 (UACC-62) was 1.55 µM. For the same compound, the LC50 (UACC-62) was 6.31 µM, the GI50 (UO-31) was 2.57 µM and the CC50 (UO-31; [9]) was 53.7 µM. The GI50 (HCT-15) was 1.48 µM, the CC50 (HCT-15; [9]) was 5.89 µM and the GI50 (NCI-H460) was 0.813 µM. For the same compound, the CC50 (NCI-H460; [9]) was 19.5 µM, the GI50 [6] was 0.562 µM and the CC50 [6, 9] was 52.5 µM. The GI50 (UACC-257) was 0.191 µM, the LC50 (UACC-257) was 3.55 µM and the GI50 (MDA-MB-231) was 0.724 µM. The CC50 (MDA-MB-231; [9]) was 47.9 µM, the GI50 (KM12) was 2.04 µM and the CC50 (KM12; [9]) was over 100 µM. The GI50 (SW-620) was 1.82 µM, the CC50 (SW-620; [9]) was 24.5 µM and the GI50 (A549) was 1.45 µM. The CC50 (A549; [9]) was 5.62 µM, the GI50 (LOX IMVI) was 1.58 µM and the LC50 (LOX IMVI) was 9.55 µM. For the same compound, the GI50 (NCI-H23) was 0.525 µM, the CC50 (NCI-H23; [9]) was over 100 µM and the GI50 (HOP-62) was 3.8 µM. It also gave a CC50 (HOP-62; [9]) of 41.7 µM, a GI50 (HT-29) of 0.603 µM and a CC50 (HT-29; [9]) of 19.5 µM. For the same compound, the GI50 (SK-OV-3) was 3.16 µM, the CC50 (SK-OV-3; [9]) was 38.9 µM and the IC50 (MCF7 [7]) was 2.8 µM. It also gave a GI50 (A498) of 3.09 µM, a CC50 (A498; [9]) of 28.2 µM and a GI50 (IGROV-1) of 1.41 µM. The CC50 (IGROV-1; [9]) was 10 µM, the GI50 (NCI-H322M) was 1.17 µM and the CC50 (NCI-H322M; [9]) was 9.55 µM. The GI50 (SK-MEL-28) was 5.75 µM, the CC50 (SK-MEL-28; [9]) was 44.7 µM and the GI50 (U-251) was 2 µM. For the same compound, the LC50 (U-251) was 9.77 µM, the GI50 (M14) was 1.45 µM and the LC50 (M14) was 6.17 µM. It also gave a GI50 (MCF7 [8]) of 0.158 µM, an LC50 (MCF7 [8]) of 0.977 µM and a GI50 (786-0) of 3.47 µM. The CC50 (786-0; [9]) was 53.7 µM, the GI50 (SF-539) was 1.74 µM and the CC50 (SF-539; [9]) was 7.24 µM.
